# From patent US20120232070A1, “Use of Indole Derivatives as Nurr-1 Activators for the Application Thereof as a Medicament for the Treatment of Parkinson's Disease” (Laboratoires Fournier SA, priority 2009, published 2012)
# How the values were obtained:
# [1] = target: hNurr1_RXRγFL (NURR1/RXRγ heterodimer) (Homo sapiens, UniProt P43354+P48443); assay: Transactivation assay in Cos-7 cells, NURR-1-Gal4 / RXRγ, luciferase reporter; assay type: cell-based; conditions: for Emax: COS-7, read-out: hNurr1_RXRγFL Eff (%), efficacy in % relative to the reference XCT0135908 at 2·10^−5 M (=100%); for EC50: Cos-7 cells, overnight incubation
# Experimental: (§1) First, the capacity of the compounds according to the invention for acting as an activator of the heterodimers formed by the NURR-1 nuclear receptor and the RXR nuclear receptors was measured by an in vitro assay.
# (§2) A transactivation assay was used as a primary screening assay. Cos-7 cells were co-transfected with a plasmid expressing a chimera of the human receptor NURR-1-Gal4, a plasmid expressing the human receptor RXR (RXRα or RXRγ receptor) and a reporter plasmid 5Gal4pGL3-TK-Luc. The transfections were performed by means of a chemical agent (Jet PEI).
# (§3) The transfected cells were distributed in 384-well plates and left resting for 24 hours.
# (§4) After 24 hours, the culture medium was changed. The products according to the invention were added (final concentration between 10^−4 and 3·10^−10 M) to the culture medium. After overnight incubation, luciferase expression was measured after addition of “SteadyGlo” according to the manufacturer's instructions (Promega).
# (§5) 4-[[6-Methyl-2-phenyl-5-(2-prop enyl)-4-pyrimidinyl]amino]-benzoic acid (called XCT0135908, which was described in the article by Wallen-Mackenzie et al. published in Genes & Development 17, pages 3036-3047) at 2·10^−5 M (RXR agonist) was used as reference.
# (§6) The levels of induction (designated by “efficiency”) were calculated relative to the baseline activity of each heterodimer. The results were expressed as a percentage of the level of induction relative to the level of induction obtained with the reference (the level of induction of the reference is arbitrarily taken to be 100%).
# [2] = target: hNurr1_RXRαFL (NURR1/RXRα heterodimer) (Homo sapiens, UniProt P19793+P43354); assay: Transactivation assay in Cos-7 cells, NURR-1-Gal4 / RXRα, luciferase reporter; assay type: cell-based; conditions: for Emax: COS-7, read-out: hNurr1_RXRαFL Eff (%), efficacy in % relative to the reference XCT0135908 at 2·10^−5 M (=100%); for EC50: Cos-7 cells, overnight incubation
# Experimental: as §1, §2, §3, §4, §5, §6
# [3] = efficacy in % relative to the reference XCT0135908 at 2·10^−5 M (=100%)
# Sequence of hNurr1_RXRαFL (NURR1/RXRα heterodimer) (P19793 whole entry, the tested form may be a part): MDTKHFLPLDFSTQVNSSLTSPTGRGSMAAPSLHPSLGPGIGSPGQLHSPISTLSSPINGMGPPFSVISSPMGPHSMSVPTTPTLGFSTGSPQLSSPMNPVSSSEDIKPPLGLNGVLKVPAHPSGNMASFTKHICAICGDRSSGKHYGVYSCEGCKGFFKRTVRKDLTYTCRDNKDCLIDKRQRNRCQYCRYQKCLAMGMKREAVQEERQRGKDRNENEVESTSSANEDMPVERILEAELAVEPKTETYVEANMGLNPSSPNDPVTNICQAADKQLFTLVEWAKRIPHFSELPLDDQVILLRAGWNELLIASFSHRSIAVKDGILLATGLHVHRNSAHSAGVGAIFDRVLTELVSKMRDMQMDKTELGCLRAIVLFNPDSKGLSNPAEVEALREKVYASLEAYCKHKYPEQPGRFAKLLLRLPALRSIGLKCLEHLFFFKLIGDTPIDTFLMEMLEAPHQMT
# Sequence of hNurr1_RXRαFL (NURR1/RXRα heterodimer) (P43354 328-598): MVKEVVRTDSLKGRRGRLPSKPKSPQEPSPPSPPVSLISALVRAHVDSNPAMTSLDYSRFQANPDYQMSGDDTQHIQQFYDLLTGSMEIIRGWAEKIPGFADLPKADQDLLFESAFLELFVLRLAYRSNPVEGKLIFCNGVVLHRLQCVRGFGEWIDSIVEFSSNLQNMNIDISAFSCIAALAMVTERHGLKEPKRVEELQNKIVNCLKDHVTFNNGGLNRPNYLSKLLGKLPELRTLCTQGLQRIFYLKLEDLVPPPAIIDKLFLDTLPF
# Sequence of hNurr1_RXRγFL (NURR1/RXRγ heterodimer) (P43354 328-598): as above
# Sequence of hNurr1_RXRγFL (NURR1/RXRγ heterodimer) (P48443 whole entry, the tested form may be a part): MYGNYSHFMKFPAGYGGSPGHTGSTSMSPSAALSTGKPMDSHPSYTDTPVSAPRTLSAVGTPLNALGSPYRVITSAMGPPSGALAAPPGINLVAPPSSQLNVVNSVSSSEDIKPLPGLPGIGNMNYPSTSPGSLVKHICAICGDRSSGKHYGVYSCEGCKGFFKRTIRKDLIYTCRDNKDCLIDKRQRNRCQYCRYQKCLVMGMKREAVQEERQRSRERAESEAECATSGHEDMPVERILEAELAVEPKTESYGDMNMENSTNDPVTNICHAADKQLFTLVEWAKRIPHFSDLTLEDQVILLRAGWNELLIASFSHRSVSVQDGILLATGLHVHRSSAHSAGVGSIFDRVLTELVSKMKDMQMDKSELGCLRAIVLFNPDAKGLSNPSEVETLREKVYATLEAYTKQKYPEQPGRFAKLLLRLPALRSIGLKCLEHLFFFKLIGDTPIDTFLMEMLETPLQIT
Structure (SMILES),Emax [1] [%],EC50 [1] [nM],Emax [2] [%],EC50 [2] [nM],"hNurr1_RXRγFL Eff (%) [1, 3] [%]","hNurr1_RXRαFL Eff (%) [2, 3] [%]"
"O=C(O)c1ccc(Cc2cc3cc(Cl)ccc3n2S(=O)(=O)c2ccc(F)cc2)cc1 [Example 167, 4-[[1-[4-fluoro-phenylsulfonyl]-5-(chloro)-1H-indol-2-yl]methyl]benzoic acid]",40,2440,48,1150,,
CC1(C)COc2ccc(S(=O)(=O)n3c(Cc4ccc(C(=O)O)cc4)cc4cc(Cl)ccc43)cc21 [Example 183],,95,,47,91,80
"O=C(O)c1ccc(Cc2cc3cc(Cl)ccc3n2S(=O)(=O)c2ccc(Cl)cc2)cc1 [Example 160, 4-[[1-[4-chloro-phenylsulfonyl]-5-(chloro)-1H-indol-2-yl]methyl]benzoic acid]",55,1390,59,462,,
"O=C(O)c1ccc(Cc2cc3cc(Cl)ccc3n2S(=O)(=O)c2ccc(OC(F)(F)F)cc2)cc1 [Example 156, 4-[[1-[4-trifluoromethoxy-phenylsulfonyl]-5-(chloro)-1H-indol-2-yl]methyl]benzoic acid]",43,1300,69,638,,
"CC(C)(C)c1cccc(S(=O)(=O)n2c(Cc3ccc(C(=O)O)o3)cc3cc(C(F)(F)F)ccc32)c1 [Example 69, 5-[[1-[[3-(1,1-dimethylethyl)-phenyl]sulfonyl]-5-trifluoromethyl-1H-indol-2-yl]methyl]-furan-2-carboxylic acid]",72,15,79,9,,
"O=C(O)c1ccc(Cc2cc3cc(C(F)(F)F)ccc3n2S(=O)(=O)c2cccc(OC(F)(F)F)c2)cc1 [Example 145, 4-[[1-[3-trifluoromethoxy-phenylsulfonyl]-5-(trifluoromethyl)-1H-indol-2-yl]methyl]benzoic acid]",21,638,44,359,,
"CN1C(=O)COc2ccc(S(=O)(=O)n3c(Cc4ccc(C(=O)O)cc4)cc4cc(C(F)(F)F)ccc43)cc21 [Example 125, 4-[[1-[4-methyl-3-oxo-3,4-dihydro-2H-benzo[1,4]oxazine-6-sulfonyl]-5-(trifluoromethyl)-1H-indol-2-yl]methyl]benzoic acid]",101,724,61,808,,
"O=C(O)c1ccc(Cc2cc3cc(C(F)(F)F)ccc3n2S(=O)(=O)c2ccc(Cl)c(OC(F)F)c2)cc1 [Example 147, 4-[[1-[4-chloro-3-difluoromethoxy-phenylsulfonyl]-5-(trifluoromethyl)-1H-indol-2-yl]methyl]benzoic acid]",30,1100,49,825,,
"O=C(O)c1ccc(Cc2cc3cc(Cl)ccc3n2S(=O)(=O)c2ccc3ccccc3c2)cc1 [Example 163, 4-[[5-chloro-1-(2-naphthalenylsulfonyl)-1H-indol-2-yl]methyl]benzoic acid]",34,933,53,427,,
"O=C(O)c1ccc(Cc2cc3cc(Cl)ccc3n2S(=O)(=O)c2ccc3c(c2)OCCO3)cc1 [Example 157, 4-[[1-[2,3-dihydro-benzo[1,4]dioxin-6-sulfonyl]-5-(chloro)-1H-indol-2-yl]methyl]benzoic acid]",64,838,67,267,,
"Cc1cccc(S(=O)(=O)n2c(Cc3ccc(C(=O)O)cc3)cc3cc(Cl)ccc32)c1 [Example 161, 4-[[5-chloro-1-[(3-methylphenyl)sulfonyl]-1H-indol-2-yl]methyl]benzoic acid]",40,584,59,460,,
"CN1CCOc2ccc(S(=O)(=O)n3c(Cc4ccc(C(=O)O)c(Cl)c4)cc4cc(C(F)(F)F)ccc43)cc21 [Example 211, 4-[[1-[[4-methyl-3,4-dihydro-2H-benzo[1,4]oxazin-6-yl]-sulfonyl]-5-trifluoromethyl-1H-indol-2-yl]methyl]-2-chlorobenzoic acid]",56,465,83,385,,
"O=C(O)c1ccc(Cc2cc3cc(Cl)ccc3n2S(=O)(=O)c2ccc(Oc3ccccc3)nc2)cc1 [Example 175, 4-[[5-chloro-1-[(6-phenoxy-3-pyridinyl)sulfonyl]-1H-indol-2-yl]methyl]benzoic acid]",14,> 10000,38,331,,
"CC(C)(C)c1cccc(S(=O)(=O)n2c(Cc3ccc(C(=O)O)cc3)cc3ccccc32)c1 [Example 195, 4-[[1-[[3-(1,1-dimethylethyl)phenyl]sulfonyl]-1H-indol-2-yl]methyl]-benzoic acid]",56,1170,57,629,,
"O=C(O)c1ccc(Cc2cc3cc(C(F)(F)F)ccc3n2S(=O)(=O)c2ccsc2)cc1 [Example 16, 4-[[1-(3-thienylsulfonyl)-5-(trifluoromethyl)-1H-indol-2-yl]methyl]benzoic acid]",45,628,66,617,,
"CC(C)c1ccc(S(=O)(=O)n2c(Cc3ccc(C(=O)O)c(O)c3)cc3cc(C(F)(F)F)ccc32)cc1 [Example 68, 2-hydroxy-4-[[1-[[4-(1-methylethyl)phenyl]sulfonyl]-5-(trifluoromethyl)-1H-indol-2-yl]methyl]-benzoic acid]",43,553,51,343,,
"O=C(O)c1ccc(Cc2cc3cc(Cl)ccc3n2S(=O)(=O)c2ccc(-c3ccc(F)cc3)cc2)cc1 [Example 179, 4-[[1-[4′-fluoro-biphenyl-4-sulfonyl]-5-(chloro)-1H-indol-2-yl]methyl]benzoic acid]",26,> 10000,62,331,,
"CCS(=O)(=O)n1c(Cc2ccc(C(=O)O)cc2)cc2cc(Cl)ccc21 [Example 176, 4-[[5-chloro-1-(ethylsulfonyl)-1H-indol-2-yl]methyl]benzoic acid]",21,> 10000,33,3390,,
"O=C(O)c1ccc(Cc2cc3cc(C(F)(F)F)ccc3n2S(=O)(=O)c2ccc(F)c(Cl)c2)cc1 [Example 15, 4-[[1-[(3-chloro-4-fluorophenyl)sulfonyl]-5-(trifluoromethyl)-1H-indol-2-yl]methyl]benzoic acid]",54,746,66,372,,
"COC(=O)c1ccc(Cc2cc3cc(C(F)(F)F)c(F)cc3n2S(=O)(=O)c2cccc(C(C)(C)C)c2)cc1 [Example 110, 4-[[1-[[3-(1,1-dimethylethyl)phenyl]sulfonyl]-5-(trifluoro)-6-fluoro-1H-indol-2-yl]methyl]benzoic acid, methyl ester]",95,63,92,15,,
"COC(=O)c1cc(Cc2cc3cc(C(F)(F)F)ccc3n2S(=O)(=O)c2cccc(C(C)(C)C)c2)cn1C [Example 192, 4-{[1-[[3-(1,1-dimethylethyl)-phenyl]sulfonyl]-5-trifluoromethyl-1H-indol-2-yl]-methyl}-1-methyl-1H-pyrrol-2-yl-carboxylic acid, methyl ester]",58,> 10000,85,1120,,
"Cn1nccc1-c1cccc(S(=O)(=O)n2c(Cc3ccc(C(=O)O)cc3)cc3cc(C(F)(F)F)ccc32)c1 [Example 20, 4-[[1-[[3-(1-methyl-1H-pyrazol-5-yl)phenyl]sulfonyl]-5-(trifluoromethyl)-1H-indol-2-yl]methyl]benzoic acid]",44,617,54,295,,
"O=C(O)c1ccc(Cc2cc3cc(Cl)ccc3n2S(=O)(=O)c2ccc(C(F)(F)F)cc2)cc1 [Example 158, 4-[[1-[4-trifluoro-phenylsulfonyl]-5-(chloro)-1H-indol-2-yl]methyl]benzoic acid]",53,1260,66,504,,
"Cc1c(Cc2cccc(C(=O)O)c2)n(S(=O)(=O)c2cccc(C(C)(C)C)c2)c2ccc(C(F)(F)F)cc12 [Example 186, 3-[[1-[[3-(1,1-dimethylethyl)phenyl]sulfonyl]-3-methyl-5-(trifluoromethyl)-1H-indol-2-yl]methyl]-benzoic acid]",68,288,93,124,,
